The source of these data is ChEMBL document CHEMBL6120941, “Discovery of SIRT1-Activating Hydrogen Sulfide Donating Derivatives for Efficient Resistant of Myocardial Ischemic Injury” (J Med Chem, 2024).

Calls of active or inactive are those of the source. The rule behind the calls is not given here.

For data set [1], the system named is H9c2. The experiment in a line: Cardioprotective activity against CoCl2-induced cellular hypoxia injury in rat H9c2 cells assessed as preservation of nuclear morphology at 5 to 10 uM incubated for 24 hrs by Hoechst 33258 nuclear staining based analysis. It counts as functional, cell-based. As to conditions: dose 5-10 µM.
Data set [2] relates to H9c2. The experiment in a line: Antioxidant activity against CoCl2-induced cellular hypoxia injury in rat H9c2 cells assessed as increase in hypoxia-reduced SOD level at 5 to 10 uM incubated for 24 hrs. It counts as functional, cell-based. As to conditions: dose 5-10 µM.
For data set [3], the system named is Rattus norvegicus. Briefly: Cardioprotective activity in myocardial ischemia Sprague-Dawley rat model assessed as improvement in positional rearrangement at 10 to 30 mg/kg, IG treated for 7 days consecutively followed by ISO administration daily for 2 days consecutively by H and E/Masson staining based analysis. As to conditions: dose 10-30 mg/kg, time 9.0 day. It counts as functional, organism-based.

The subject of data set [4] is Rattus norvegicus. Briefly: Cardioprotective activity in myocardial ischemia Sprague-Dawley rat model assessed as improvement in cell volume size at 10 to 30 mg/kg, IG treated for 7 days consecutively followed by ISO administration daily for 2 days consecutively by H and E/Masson staining based analysis. It counts as functional, organism-based. As to conditions: dose 10-30 mg/kg, time 9.0 day.

The subject of data set [5] is Rattus norvegicus. Briefly: Cardioprotective activity in myocardial ischemia Sprague-Dawley rat model assessed as decrease in ISO-induced ST segment at 10 to 30 mg/kg, IG treated for 7 days consecutively followed by ISO administration daily for 2 days consecutively by ECG analysis. As to conditions: dose 10-30 mg/kg, time 9.0 day. It counts as functional, organism-based.

In data set [6] the target is T1, NAD-dependent protein deacetylase sirtuin-1 (Rattus norvegicus) (UniProt A0A0G2JZ79).
T1 sequence (whole entry): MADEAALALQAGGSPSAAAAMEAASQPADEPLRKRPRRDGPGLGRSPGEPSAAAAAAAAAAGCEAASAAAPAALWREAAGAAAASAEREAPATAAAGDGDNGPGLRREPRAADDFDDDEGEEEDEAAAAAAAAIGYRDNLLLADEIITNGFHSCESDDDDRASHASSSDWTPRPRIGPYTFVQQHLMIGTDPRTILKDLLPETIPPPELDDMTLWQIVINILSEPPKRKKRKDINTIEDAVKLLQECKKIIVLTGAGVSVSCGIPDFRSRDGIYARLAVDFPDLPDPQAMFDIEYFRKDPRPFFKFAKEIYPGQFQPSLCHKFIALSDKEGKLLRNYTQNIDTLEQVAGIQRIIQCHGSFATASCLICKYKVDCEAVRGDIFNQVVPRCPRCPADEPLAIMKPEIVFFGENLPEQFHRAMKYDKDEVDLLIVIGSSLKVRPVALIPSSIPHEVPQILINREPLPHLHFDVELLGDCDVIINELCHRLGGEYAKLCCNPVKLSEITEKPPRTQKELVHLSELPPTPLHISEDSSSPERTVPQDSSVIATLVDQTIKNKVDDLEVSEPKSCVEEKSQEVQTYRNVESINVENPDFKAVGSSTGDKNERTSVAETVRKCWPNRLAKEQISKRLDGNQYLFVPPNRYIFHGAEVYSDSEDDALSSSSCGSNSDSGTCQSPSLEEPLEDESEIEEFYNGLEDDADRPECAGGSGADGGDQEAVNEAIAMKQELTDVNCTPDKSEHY
The experiment in a line: Activation of SIRT1 in CoCl2-induced cellular hypoxia injury in rat H9c2 cells at 5 to 10 uM incubated for 24 hrs by immunofluorescence based analysis. In kind it is cell-based. As to conditions: filed as activator, dose 5-10 µM.

Data set [7] in a line: Induction of H2S release in PBS at pH 7.4 at 100 uM measured upto 60 mins by methylene blue method. In kind it is functional.
Data set [8] concerns H9c2. The experiment in a line: Cardioprotective activity against CoCl2-induced cellular hypoxia injury in rat H9c2 cells assessed as rate of apoptosis at 10 uM incubated for 24 hrs in presence of GSSG by flow cytometry (reference value: 19.5 %). It counts as functional. A general note: A flow cytometer gives signals particle by particle.
Data set [9] is described as follows: Induction of H2S […] activity in presence of GSSH. It counts as functional.
The subject of data set [10] is H9c2. The experiment in a line: Cardioprotective activity against CoCl2-induced cellular hypoxia injury in rat H9c2 cells assessed as increase in PGC1-alpha level at 5 to 10 uM incubated for 24 hrs by Western blot analysis. In kind it is functional, cell-based. As to conditions: dose 5-10 µM.
Data set [11] concerns Rattus norvegicus. The experiment in a line: Cardioprotective activity in myocardial ischemia Sprague-Dawley rat model assessed as myocardial infarction area at 30 mg/kg, IG treated for 7 days consecutively followed by ISO administration daily for 2 days consecutively by TTC staining based analysis (reference value: 32.65 %). In kind it is functional. As to conditions: time 9 day.

Data set [12] in a line: Toxicity in myocardial ischemia Sprague-Dawley rat model assessed as change in body weight at 10 to 30 mg/kg, IG treated for 7 days consecutively followed by ISO administration daily for 2 days consecutively. It counts as organism-based. As to conditions: in vivo, po, 216 h, dose 10-30 mg/kg, time 9 day.
In data set [13] the target is T1, NAD-dependent protein deacetylase sirtuin-1 (Rattus norvegicus). Briefly: Activation of SIRT1 in CoCl2-induced cellular hypoxia injury in rat H9c2 cells at 10 uM incubated for 24 hrs in presence of GSSG by immunofluorescence based analysis. It counts as cell-based.
Data set [14] has as its target T2, NAD-dependent protein deacetylase sirtuin-1 (Homo sapiens) (UniProt Q96EB6).
T2 sequence (whole entry): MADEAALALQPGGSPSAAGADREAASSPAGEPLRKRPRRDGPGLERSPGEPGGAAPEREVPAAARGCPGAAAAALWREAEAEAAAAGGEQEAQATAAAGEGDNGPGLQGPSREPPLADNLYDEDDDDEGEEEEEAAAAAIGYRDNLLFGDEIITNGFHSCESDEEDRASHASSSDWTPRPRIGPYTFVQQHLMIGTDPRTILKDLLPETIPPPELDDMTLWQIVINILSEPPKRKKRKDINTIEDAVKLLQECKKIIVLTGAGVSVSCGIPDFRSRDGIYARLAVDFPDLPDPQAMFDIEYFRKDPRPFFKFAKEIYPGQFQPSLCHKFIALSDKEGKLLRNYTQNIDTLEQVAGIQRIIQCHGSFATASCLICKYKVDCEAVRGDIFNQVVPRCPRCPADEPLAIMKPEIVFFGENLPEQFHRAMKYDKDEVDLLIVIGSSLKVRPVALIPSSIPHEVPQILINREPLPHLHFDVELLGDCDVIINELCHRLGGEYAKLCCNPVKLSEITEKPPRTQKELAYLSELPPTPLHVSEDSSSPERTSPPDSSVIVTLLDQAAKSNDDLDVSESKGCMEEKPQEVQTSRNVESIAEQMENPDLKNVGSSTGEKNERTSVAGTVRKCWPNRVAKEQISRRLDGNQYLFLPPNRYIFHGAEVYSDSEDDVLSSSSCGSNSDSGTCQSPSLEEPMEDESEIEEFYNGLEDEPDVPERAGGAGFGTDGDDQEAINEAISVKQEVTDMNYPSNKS
The experiment in a line: Activation of SIRT1 (unknown origin) using RHKK-ac-AMC as substrate incubated for 2 hrs by FDL assay relative to control. As to conditions: filed as activator.

In data set [15] the test system is H9c2. The experiment in a line: Antioxidant activity against CoCl2-induced cellular hypoxia injury in rat H9c2 cells assessed as decrease in hypoxia-induced MDA level at 5 to 10 uM incubated for 24 hrs. In kind it is functional, cell-based. As to conditions: dose 5-10 µM.
The subject of data set [16] is H9c2. The experiment in a line: Antioxidant activity against CoCl2-induced cellular hypoxia injury in rat H9c2 cells assessed as increase in hypoxia-reduced GSH level at 5 to 10 uM incubated for 24 hrs. In kind it is functional, cell-based. As to conditions: dose 5-10 µM.
The test system of data set [17] is H9c2. The experiment in a line: Antioxidant activity against CoCl2-induced cellular hypoxia injury in rat H9c2 cells assessed as decrease in hypoxia-induced LDH release at 5 to 10 uM incubated for 24 hrs. In kind it is functional, cell-based. As to conditions: dose 5-10 µM. For orientation: LDH in the medium is a marker of cell lysis.

Take `C=CCSSCCC(=O)O[C@H]1CC[C@]2(C)[C@H]3C[C@@H](O)[C@@H]4[C@@H]([C@]5(C)CC[C@@H](C(C)(C)O)O5)CC[C@@]4(C)[C@]3(C)CC[C@H]2C1(C)C`: the result (with H9c2 [1]; in the data set on H9c2 [2]; in the data set on Rattus norvegicus [3]; in the data set with Rattus norvegicus [4]; in the data set on Rattus norvegicus [5]; in data set [6]) was Active. Besides, the result (in data set [7]; in the data set on H9c2 [10]; with H9c2 [15]; in the data set with H9c2 [16]; with H9c2 [17]) was Active. Also, the Activity is 8.01% with H9c2 [8]; 18.6% in [9]; 13.24% in the data set with Rattus norvegicus [11]; “Non-toxic” in data set [12]; 177% in data set [14]. Further, in data set [13], the result was inactive.
